Assays:
[1] = target: dopamine D2 receptor (D2^high / D2^low) (Rattus norvegicus, UniProt P61169); type: binding
[2] = target: dopamine D3 receptor (human D3 clone) (Homo sapiens, UniProt P35462); assay: Competitive binding at human D3 clone, [3H]domperidone
Chain of dopamine D3 receptor (human D3 clone) (P35462 whole entry): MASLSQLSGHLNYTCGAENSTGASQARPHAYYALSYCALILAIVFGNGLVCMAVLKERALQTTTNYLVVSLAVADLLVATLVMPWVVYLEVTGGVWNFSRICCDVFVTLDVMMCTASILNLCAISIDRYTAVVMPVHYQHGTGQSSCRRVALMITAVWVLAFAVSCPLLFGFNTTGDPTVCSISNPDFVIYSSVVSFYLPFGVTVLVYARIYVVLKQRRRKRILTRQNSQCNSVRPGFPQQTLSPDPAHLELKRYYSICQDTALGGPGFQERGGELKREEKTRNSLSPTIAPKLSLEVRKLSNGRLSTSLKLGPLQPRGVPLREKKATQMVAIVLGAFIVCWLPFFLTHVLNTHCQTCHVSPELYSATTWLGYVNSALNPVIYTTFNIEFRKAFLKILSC

Chain of dopamine D2 receptor (D2^high / D2^low) (P61169 1-415 isoform P61169-2): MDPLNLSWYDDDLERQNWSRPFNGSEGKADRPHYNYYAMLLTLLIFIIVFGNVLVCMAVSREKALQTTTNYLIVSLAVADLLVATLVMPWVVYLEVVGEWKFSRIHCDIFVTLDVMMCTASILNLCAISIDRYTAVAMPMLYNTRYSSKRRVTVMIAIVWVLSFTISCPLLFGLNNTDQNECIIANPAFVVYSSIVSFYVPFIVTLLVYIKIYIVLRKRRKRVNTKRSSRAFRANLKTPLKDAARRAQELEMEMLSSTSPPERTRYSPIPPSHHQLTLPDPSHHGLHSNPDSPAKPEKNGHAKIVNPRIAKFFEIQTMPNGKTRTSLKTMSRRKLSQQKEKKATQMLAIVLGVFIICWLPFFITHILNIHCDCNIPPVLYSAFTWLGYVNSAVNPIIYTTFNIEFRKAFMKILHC

Question: Which “fold improvement in D2^high binding affinity” value ([1]; 2-fluoroethoxy analog versus N-ethyl 2-fluoropropanoxy analog 8c) does the source give for CCN1CCc2cc(OCCF)cc3c2[C@H]1Cc1ccc(O)c(O)c1-3 [Compound 8d] here?
Answer: Its value is “more than 2 fold”.

Question: CCN1CCc2cc(OCCCF)cc3c2[C@H]1Cc1ccc(O)c(O)c1-3 [Compound 8c, N-ethyl-2-fluoropropanoxy catechol-aporphine] was tested. Which “fold increase in D2^high affinity” value ([1]; in comparison to 8a) did it give?
Answer: Its value is about 4 fold.

Question: For CN1CCc2cc(OCCF)cc3c2[C@H]1Cc1ccc(O)c(O)c1-3 [Compound 8f], which “Ki D3 [3H]domperidone” value ([2]; human D3 clone, SD) is on record?
Answer: The value was “no appreciable affinity to D3”.

Question: How did the “Ki D3^high” value ([2]; high affinity state of D3) turn out when CN1CCc2cc(OCCCF)cc3c2[C@H]1Cc1ccc(O)c(O)c1-3 [Compound 8e] was run?
Answer: The value was “did not exhibit any D3^high affinity”.

— article PMC3110009 (ACS medicinal chemistry letters, 2011)
